Tested on: Transport facilitation protein genes
Test: DNA chip mRNA expression in yeast, transport facilitation protein genes (Table 5)
Type: cell-based, Saccharomyces cerevisiae S288C
In short: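 S. cerevisiae S288C grown at 25° C in YPD were exposed in log phase for two hours to one toxic chemical at a growth-inhibiting, non-lethal concentration; untreated cells served as control. Poly(A) mRNA was reverse-transcribed with Cy3/Cy5-dUTP and hybridized to a whole-genome yeast DNA chip at 65° C for over 12 hours; values are fluorescence ratios versus untreated.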

## C=CC=O [(14), acrolein]
Yeast gene YHL035C
  The level of expressed mRNA in the presence of chemical substance/The level of expressed mRNA in the absence of chemical substance: 0.8
Yeast gene YHL040C
  The level of expressed mRNA in the presence of chemical substance/The level of expressed mRNA in the absence of chemical substance: 1.1
Yeast gene YHL047C
  The level of expressed mRNA in the presence of chemical substance/The level of expressed mRNA in the absence of chemical substance: 0.5
Yeast gene YHR026W
  The level of expressed mRNA in the presence of chemical substance/The level of expressed mRNA in the absence of chemical substance: 1.3
Yeast gene YHR092C
  The level of expressed mRNA in the presence of chemical substance/The level of expressed mRNA in the absence of chemical substance: 1.6
Yeast gene YHR094C
  The level of expressed mRNA in the presence of chemical substance/The level of expressed mRNA in the absence of chemical substance: 0.6
Yeast gene YHR175W
  The level of expressed mRNA in the presence of chemical substance/The level of expressed mRNA in the absence of chemical substance: 0.7
Yeast gene YIL006W
  The level of expressed mRNA in the presence of chemical substance/The level of expressed mRNA in the absence of chemical substance: 1.0
Yeast gene YIL022W
  The level of expressed mRNA in the presence of chemical substance/The level of expressed mRNA in the absence of chemical substance: 0.6
Yeast gene YIL056W
  The level of expressed mRNA in the presence of chemical substance/The level of expressed mRNA in the absence of chemical substance: 1.0
Yeast gene YIL088C
  The level of expressed mRNA in the presence of chemical substance/The level of expressed mRNA in the absence of chemical substance: 1.2
Yeast gene YJL034W
  The level of expressed mRNA in the presence of chemical substance/The level of expressed mRNA in the absence of chemical substance: 0.6
Yeast gene YJL212C
  The level of expressed mRNA in the presence of chemical substance/The level of expressed mRNA in the absence of chemical substance: 0.8
Yeast gene YJL219W
  The level of expressed mRNA in the presence of chemical substance/The level of expressed mRNA in the absence of chemical substance: 1.1
Yeast gene YJR077C
  The level of expressed mRNA in the presence of chemical substance/The level of expressed mRNA in the absence of chemical substance: 0.7
Yeast gene YJR106W
  The level of expressed mRNA in the presence of chemical substance/The level of expressed mRNA in the absence of chemical substance: 0.9
Yeast gene YJR121W
  The level of expressed mRNA in the presence of chemical substance/The level of expressed mRNA in the absence of chemical substance: 0.7
Yeast gene YKL016C
  The level of expressed mRNA in the presence of chemical substance/The level of expressed mRNA in the absence of chemical substance: 1.6
Yeast gene YKL146W
  The level of expressed mRNA in the presence of chemical substance/The level of expressed mRNA in the absence of chemical substance: 1.0
Yeast gene YKL221W
  The level of expressed mRNA in the presence of chemical substance/The level of expressed mRNA in the absence of chemical substance: 1.4
Yeast gene YKR039W
  The level of expressed mRNA in the presence of chemical substance/The level of expressed mRNA in the absence of chemical substance: 1.2
Yeast gene YKR067W
  The level of expressed mRNA in the presence of chemical substance/The level of expressed mRNA in the absence of chemical substance: 1.3
Yeast gene YLL028W
  The level of expressed mRNA in the presence of chemical substance/The level of expressed mRNA in the absence of chemical substance: 0.7
Yeast gene YLR081W
  The level of expressed mRNA in the presence of chemical substance/The level of expressed mRNA in the absence of chemical substance: 1.0
Yeast gene YLR092W
  The level of expressed mRNA in the presence of chemical substance/The level of expressed mRNA in the absence of chemical substance: 1.4
Yeast gene YLR295C
  The level of expressed mRNA in the presence of chemical substance/The level of expressed mRNA in the absence of chemical substance: 1.2
Yeast gene YLR348C
  The level of expressed mRNA in the presence of chemical substance/The level of expressed mRNA in the absence of chemical substance: 1.0
Yeast gene YLR378C
  The level of expressed mRNA in the presence of chemical substance/The level of expressed mRNA in the absence of chemical substance: 0.4
Yeast gene YMR011W
  The level of expressed mRNA in the presence of chemical substance/The level of expressed mRNA in the absence of chemical substance: 0.6
Yeast gene YMR162C
  The level of expressed mRNA in the presence of chemical substance/The level of expressed mRNA in the absence of chemical substance: 1.0
Yeast gene YMR203W
  The level of expressed mRNA in the presence of chemical substance/The level of expressed mRNA in the absence of chemical substance: 0.7
Yeast gene YNL055C
  The level of expressed mRNA in the presence of chemical substance/The level of expressed mRNA in the absence of chemical substance: 0.9
Yeast gene YNL259C
  The level of expressed mRNA in the presence of chemical substance/The level of expressed mRNA in the absence of chemical substance: 1.4
Yeast gene YNR072W
  The level of expressed mRNA in the presence of chemical substance/The level of expressed mRNA in the absence of chemical substance: 1.0
Yeast gene YOL119C
  The level of expressed mRNA in the presence of chemical substance/The level of expressed mRNA in the absence of chemical substance: 2.4
Yeast gene YOL156W
  The level of expressed mRNA in the presence of chemical substance/The level of expressed mRNA in the absence of chemical substance: 0.9
Yeast gene YOL163W
  The level of expressed mRNA in the presence of chemical substance/The level of expressed mRNA in the absence of chemical substance: 1.2
Yeast gene YOR035C
  The level of expressed mRNA in the presence of chemical substance/The level of expressed mRNA in the absence of chemical substance: 0.9
Yeast gene YOR130C
  The level of expressed mRNA in the presence of chemical substance/The level of expressed mRNA in the absence of chemical substance: 1.3
Yeast gene YOR153W
  The level of expressed mRNA in the presence of chemical substance/The level of expressed mRNA in the absence of chemical substance: 0.3
Yeast gene YOR270C
  The level of expressed mRNA in the presence of chemical substance/The level of expressed mRNA in the absence of chemical substance: 0.7
Yeast gene YOR273C
  The level of expressed mRNA in the presence of chemical substance/The level of expressed mRNA in the absence of chemical substance: 0.5
Yeast gene YOR316C
  The level of expressed mRNA in the presence of chemical substance/The level of expressed mRNA in the absence of chemical substance: 1.0
Yeast gene YOR328W
  The level of expressed mRNA in the presence of chemical substance/The level of expressed mRNA in the absence of chemical substance: 0.8
Yeast gene YOR332W
  The level of expressed mRNA in the presence of chemical substance/The level of expressed mRNA in the absence of chemical substance: 1.1
Yeast gene YOR348C
  The level of expressed mRNA in the presence of chemical substance/The level of expressed mRNA in the absence of chemical substance: 1.2
Yeast gene YPL036W
  The level of expressed mRNA in the presence of chemical substance/The level of expressed mRNA in the absence of chemical substance: 0.6
Yeast gene YPL134C
  The level of expressed mRNA in the presence of chemical substance/The level of expressed mRNA in the absence of chemical substance: 1.4
Yeast gene YPL224C
  The level of expressed mRNA in the presence of chemical substance/The level of expressed mRNA in the absence of chemical substance: 1.4
Yeast gene YPL265W
  The level of expressed mRNA in the presence of chemical substance/The level of expressed mRNA in the absence of chemical substance: 1.1
Yeast gene YPL271W
  The level of expressed mRNA in the presence of chemical substance/The level of expressed mRNA in the absence of chemical substance: 1.3
Yeast gene YPR124W
  The level of expressed mRNA in the presence of chemical substance/The level of expressed mRNA in the absence of chemical substance: 0.4
Yeast gene YPR192W
  The level of expressed mRNA in the presence of chemical substance/The level of expressed mRNA in the absence of chemical substance: 0.7
Yeast gene YPR194C
  The level of expressed mRNA in the presence of chemical substance/The level of expressed mRNA in the absence of chemical substance: 1.0

— US8192962B2, “Processes for detecting toxic substances” (Daikin Industries, Ltd., priority 2001, dated 2012)
